≈ marks a conversion by molar mass, not a printed value.
Columns and labels:
[1] = test system: Can. tropicalis IAM 4942; assay: Minimum inhibitory concentration, broth dilution method; details: Candida tropicalis, IAM4942
[2] = test system: Can. albicans IAM 4905; assay: as above; details: Candida albicans, IAM4905
[3] = test system: Corv. bovis 1810; assay: as above
[4] = test system: solid and ascitic-type mammalian malignant tumors; assay: Inhibitory action against solid and ascitic-type mammalian malignant tumors; assay type: in vivo, mammals
[5] = test system: Bac. subtilis ATCC 6633; assay: Minimum inhibitory concentration, broth dilution method; details: Bacillus subtilis, ATCC6633
[6] = test system: Staph. aureus FDA 209P; assay: as above; details: Staphylococcus aureus, FDA209P
[7] = test system: L1210 cells; assay: Growth inhibition of cultured L1210 cells; details: Mus musculus, L1210, read-out: % Inhibition, Growth (on Day 2)
[8] = test system: Ps. fluoroescens NIHJB-254; assay: Minimum inhibitory concentration, broth dilution method
[9] = test system: Mic. flavus; assay: as above; details: Micrococcus flavus
[10] = test system: Pr. morganii; assay: as above; details: Morganella morganii
[11] = test system: Bac. cereus ATCC 9634; assay: as above; details: Bacillus cereus, ATCC9634
[12] = test system: P388 leukemia; assay: Inhibition of growth of P388 leukemia in mice; assay type: in vivo
[13] = test system: Sar. lutea ATCC 9341; assay: Minimum inhibitory concentration, broth dilution method; details: Micrococcus luteus, ATCC9341
[14] = test system: Mycobact. smegmatis ATCC 607; assay: as above
[15] = Acute toxicity, single intraperitoneal injection; details: mouse, in vivo, ip; single i.p. injection, dd mice; read-out: LD50, intraperitoneal administration
[16] = test system: Bac. megaterium NRRL B-938; assay: Minimum inhibitory concentration, broth dilution method; details: Priestia megaterium, NRRLB938
[17] = test system: Staph. aureus Smith; assay: as above; details: Staphylococcus aureus
[18] = solid and ascitic-type mammalian tumors, in words
[19] = P388 leukemia in mice, in words

Row | SMILES | MIC [1] | MIC [2] | MIC [3] | inhibitory action against malignant tumors [4, 18] | MIC [5] | MIC [6] | inhibition at 0.1 µg/mL [7] | MIC [8] | MIC [9] | MIC [10] | MIC [11] | inhibiting the growth of P388 leukemia [12, 19] | MIC [13] | MIC [14] | LD50 [15] | MIC [16] | MIC [17] | inhibitory action against malignant tumors ([4]; in vivo) | inhibiting the growth of P388 leukemia ([12]; mouse, in vivo)
1 | CC[C@@]1(O)C[C@H](O[C@H]2C[C@H](N(C)C)[C@H](O[C@H]3C[C@H](O)[C@H](O)[C@H](C)O3)[C@H](C)O2)c2c(cc3c(c2O)C(=O)c2c(O)cccc2C3=O)[C@H]1C(=O)OC [MA 144-S1, 2-deoxy-L-fucosyl-L-rhodosaminyl-aklavinone] | > 100 µg/mL | > 100 µg/mL | 0.78 µg/mL (≈ 1.11 µM) | marked inhibitory action | 3.1 µg/mL (≈ 4.43 µM) | 6.25 µg/mL (≈ 8.93 µM) | 86% | > 100 µg/mL | 1.56 µg/mL (≈ 2.23 µM) | > 100 µg/mL | 1.56 µg/mL (≈ 2.23 µM) | effective in inhibiting the growth of malignant tumors | 1.56 µg/mL (≈ 2.23 µM) | > 100 µg/mL | 24.4 mg/kg | 3.1 µg/mL (≈ 4.43 µM) | 3.1 µg/mL (≈ 4.43 µM) |  | 
2 | CC[C@@]1(O)C[C@H](O[C@H]2C[C@H](N(C)C)[C@H](O[C@H]3C[C@H](O)[C@H](O[C@H]4C[C@H](O)[C@H](O)[C@H](C)O4)[C@H](C)O3)[C@H](C)O2)c2c(cc3c(c2O)C(=O)c2c(O)cccc2C3=O)[C@H]1C(=O)OC [MA 144-U1] | > 100 µg/mL | > 100 µg/mL | 6.25 µg/mL (≈ 7.53 µM) | marked inhibitory action | 3.1 µg/mL (≈ 3.74 µM) | 6.25 µg/mL (≈ 7.53 µM) | 78.5% | > 100 µg/mL | 1.56 µg/mL (≈ 1.88 µM) | > 100 µg/mL | 1.56 µg/mL (≈ 1.88 µM) | effective in inhibiting the growth of malignant tumors | 1.56 µg/mL (≈ 1.88 µM) | > 100 µg/mL | 30.2 mg/kg | 3.1 µg/mL (≈ 3.74 µM) | 3.1 µg/mL (≈ 3.74 µM) |  | 
3 | CC[C@@]1(O)C[C@H](O[C@H]2C[C@H](N(C)C)[C@H](O[C@H]3C[C@H](O)[C@H](O[C@H]4CCC(=O)[C@H](C)O4)[C@H](C)O3)[C@H](C)O2)c2c(cc3c(c2O)C(=O)c2c(O)cccc2C3=O)[C@H]1C(=O)OC [Aclacinomycin, reference compound] |  |  |  |  |  |  | 89.7% |  |  |  |  |  |  |  |  |  |  |  | 
4 | CC[C@@]1(O)C[C@H](O[C@H]2C[C@H](N(C)C)[C@H](O[C@H]3C[C@H](O)[C@H](OC4CCC(=O)C(C)O4)[C@H](C)O3)[C@H](C)O2)c2c(cc3c(c2O)C(=O)c2c(O)ccc(O)c2C3=O)[C@H]1C(=O)OC (stereo partly drawn) [D-cinerulosyl-2-deoxy-L-fucosyl-L-rhodosaminyl-ε-pyrromycinone] | > 100 µg/mL | > 100 µg/mL | 0.78 µg/mL (≈ 0.942 µM) |  | 1.56 µg/mL (≈ 1.88 µM) | 3.12 µg/mL (≈ 3.77 µM) | 82.1% | 100 µg/mL (≈ 121 µM) | 0.2 µg/mL (≈ 0.242 µM) | > 100 µg/mL | 0.78 µg/mL (≈ 0.942 µM) |  | 0.78 µg/mL (≈ 0.942 µM) | 3.12 µg/mL (≈ 3.77 µM) | 17 mg/kg | 6.25 µg/mL (≈ 7.55 µM) | 1.56 µg/mL (≈ 1.88 µM) | marked inhibitory action | effective in inhibiting the growth of malignant tumors
5 | CC[C@@]1(O)C[C@H](O[C@H]2C[C@H](N(C)C)[C@H](O[C@H]3C[C@H](O)[C@H](O[C@H]4C=CC(=O)[C@H](C)O4)[C@H](C)O3)[C@H](C)O2)c2c(cc3c(c2O)C(=O)c2c(O)cccc2C3=O)[C@H]1C(=O)OC [MA 144-Y] | > 100 µg/mL | > 100 µg/mL | 0.2 µg/mL (≈ 0.247 µM) | marked inhibitory action | 0.2 µg/mL (≈ 0.247 µM) | 0.4 µg/mL (≈ 0.494 µM) | 90.2% | > 100 µg/mL | 0.1 µg/mL (≈ 0.123 µM) | > 100 µg/mL | 0.1 µg/mL (≈ 0.123 µM) | effective in inhibiting the growth of malignant tumors | 0.2 µg/mL (≈ 0.247 µM) | 3.1 µg/mL (≈ 3.83 µM) | 40 to 50 mg/kg | 0.2 µg/mL (≈ 0.247 µM) | 0.2 µg/mL (≈ 0.247 µM) |  | 
6 | CC[C@@]1(O)C[C@H](O[C@H]2C[C@H](NC)[C@H](O[C@H]3C[C@H](O)[C@H](O[C@H]4CCC(=O)[C@H](C)O4)[C@H](C)O3)[C@H](C)O2)c2c(cc3c(c2O)C(=O)c2c(O)cccc2C3=O)[C@H]1C(=O)OC [MA 144-L] | 100 µg/mL (≈ 125 µM) | 100 µg/mL (≈ 125 µM) | 1.56 µg/mL (≈ 1.96 µM) | marked inhibitory action | 3.1 µg/mL (≈ 3.89 µM) | 6.25 µg/mL (≈ 7.83 µM) | 27.4% | 100 µg/mL (≈ 125 µM) | 0.2 µg/mL (≈ 0.251 µM) | > 100 µg/mL | 1.56 µg/mL (≈ 1.96 µM) | effective in inhibiting the growth of malignant tumors | 0.78 µg/mL (≈ 0.978 µM) | 3.1 µg/mL (≈ 3.89 µM) | 45.5 mg/kg | 6.25 µg/mL (≈ 7.83 µM) | 1.56 µg/mL (≈ 1.96 µM) |  | 
7 | CC[C@@]1(O)C[C@H](O[C@H]2C[C@H](N(C)C)[C@H](O[C@H]3C[C@H](O)[C@H](O[C@H]4C[C@H](O)[C@H](O)[C@H](C)O4)[C@H](C)O3)[C@H](C)O2)c2c(cc3c(c2O)C(=O)c2c(O)ccc(O)c2C3=O)[C@H]1C(=O)OC [MA 144-U2] | > 100 µg/mL | > 100 µg/mL | 6.25 µg/mL (≈ 7.39 µM) |  | 3.1 µg/mL (≈ 3.66 µM) | 3.1 µg/mL (≈ 3.66 µM) | 80.5% | > 100 µg/mL | 0.78 µg/mL (≈ 0.922 µM) | > 100 µg/mL | 1.56 µg/mL (≈ 1.84 µM) |  | 1.56 µg/mL (≈ 1.84 µM) | > 100 µg/mL | 14.5 mg/kg | 1.56 µg/mL (≈ 1.84 µM) | 0.78 µg/mL (≈ 0.922 µM) |  | effective in inhibiting the growth of malignant tumors
8 | CC[C@@]1(O)C[C@H](O[C@H]2C[C@H](N(C)C)[C@H](O[C@H]3C[C@H](O)[C@H](O[C@H]4CC[C@H](O)[C@H](C)O4)[C@H](C)O3)[C@H](C)O2)c2c(cc3c(c2O)C(=O)c2c(O)cccc2C3=O)[C@H]1C(=O)OC [MA 144-N1] | > 100 µg/mL | > 100 µg/mL | 0.78 µg/mL (≈ 0.958 µM) | marked inhibitory action | 3.1 µg/mL (≈ 3.81 µM) | 6.25 µg/mL (≈ 7.68 µM) | 79.2% | > 100 µg/mL | 0.4 µg/mL (≈ 0.491 µM) | > 100 µg/mL | 0.78 µg/mL (≈ 0.958 µM) | effective in inhibiting the growth of malignant tumors | 0.78 µg/mL (≈ 0.958 µM) | > 100 µg/mL | 32.5 mg/kg | 3.1 µg/mL (≈ 3.81 µM) | 0.78 µg/mL (≈ 0.958 µM) |  | 
9 | CC[C@@]1(O)C[C@H](O[C@H]2C[C@H](N(C)C)[C@H](O[C@H]3C[C@H](O)[C@H](O)[C@H](C)O3)[C@H](C)O2)c2c(cc3c(c2O)C(=O)c2c(O)ccc(O)c2C3=O)[C@H]1C(=O)OC [MA 144-S2] | > 100 µg/mL | > 100 µg/mL | 0.78 µg/mL (≈ 1.09 µM) |  | 3.1 µg/mL (≈ 4.33 µM) | 6.25 µg/mL (≈ 8.73 µM) | 88.1% | > 100 µg/mL | 0.78 µg/mL (≈ 1.09 µM) | > 100 µg/mL | 0.78 µg/mL (≈ 1.09 µM) | effective in inhibiting the growth of malignant tumors | 1.56 µg/mL (≈ 2.18 µM) | > 100 µg/mL | 12.5 mg/kg | 3.1 µg/mL (≈ 4.33 µM) | 0.78 µg/mL (≈ 1.09 µM) |  | 

Reference: patent US4209588A, “Process for producing new antitumor anthracycline antibiotics” (Zaidan Hojin Biseibutsu Kagaku Kenkyu Kai, priority 1976, dated 1980)
